pIC50, pKi: −log10 of the molar value. Structures can show the parent of a compound that is named as a salt. Where two headings read alike, the source gives them in different places.

Experiment [1] concerns leukotriene pathway in human whole blood (LTB4 levels). Briefly: Human whole blood assay (A23187-stimulated LTB4). The settings on record: Homo sapiens, read-out: LTB4 IC50 1:1. Format: cell-based. In short, it runs like this: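 Heparinised human whole blood diluted 1:1 in RPMI, pre-incubated 15 min at 37° Celsius with compound, then stimulated with A23187 (7 μg/mL) for 30 min at 37° Celsius. Plasma LTB4 measured by immunoassay kit; IC50 from 4-parameter fit; single replicate per plate, at least one healthy donor.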

A further experiment concerns the target human FLAP (Homo sapiens (Human), UniProt P20292). Briefly: FLAP binding assay (HTRF format). The essentials:
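Samples were run in duplicate on each of two plates and the plate results averaged. Read-out is the HTRF signal ratio.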

The mark [2] stands for this setting: human whole blood diluted 1:1 in RPMI, A23187-stimulated LTB4.
Where [3] appears, read: human FLAP wild type, HTRF format, average of two plates, duplicates.
Setting [4] is: human whole blood diluted 1:1, A23187-stimulated.
[5] abbreviates: read-out: FLAP Binding wild type HTRF Ki.

Chain of human FLAP (P20292 whole entry): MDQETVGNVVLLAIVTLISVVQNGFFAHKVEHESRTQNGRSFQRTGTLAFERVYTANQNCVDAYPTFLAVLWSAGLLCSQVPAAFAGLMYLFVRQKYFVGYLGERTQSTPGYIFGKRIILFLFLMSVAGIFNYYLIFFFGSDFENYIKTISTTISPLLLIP

Consider `Nc1cnc(-c2ccc(-c3ccccc3S(=O)(=O)N3CCN(CCO)CC3)cc2F)cn1` [Example 59, 2-(4-{[4′-(5-Aminopyrazin-2-yl)-3′-fluorobiphenyl-2-yl]sulfonyl}piperazin-1-yl)ethanol], for which, in experiment [1] (setting [2]), the pIC50 was 5.99. The compound also showed a pKi at human FLAP (setting [3]) of 7.70.

Turning to `CC(C)(C)NS(=O)(=O)c1ccccc1-c1ccc(-c2ccc(N)nc2)c(F)c1` [Example 342, 4′-(6-Aminopyridin-3-yl)-N-(tert-butyl)-3′-fluoro-[1,1′-biphenyl]-2-sulfonamide], the pIC50 in experiment [1] (setting [2]) was 6.93. The compound further gave a pKi at human FLAP (setting [3]) of 8.70.

For `CC1CN(S(=O)(=O)c2ccccc2-c2ccc(-c3cnc(N)cn3)c(F)c2)CC(C)N1` (racemic) [Example 62, Racemic-5-{2′-[(3,5-Dimethylpiperazin-1-yl)sulfonyl]-3-fluorobiphenyl-4-yl}pyrazin-2-amine], the pIC50 in experiment [1] (setting [2]) was 6.95. The compound further gave a pKi on human FLAP (setting [3]) of 6.85.

With `Nc1cnc(-c2ccc(-c3ccccc3S(=O)(=O)N3CCc4[nH]ncc4C3)cc2F)cn1` [Example 128, 5-[3-Fluoro-2′-(1,4,6,7-tetrahydro-5H-pyrazolo[4,3-c]pyridin-5-ylsulfonyl)biphenyl-4-yl]pyrazin-2-amine], the pIC50 in experiment [1] (setting [2]) was 7.42. Moreover, the pKi on human FLAP (setting [3]) is 9.00.

For the compound `Nc1cnc(-c2ccc(-c3ccccc3S(=O)(=O)N[C@H]3CCCNC3=O)cc2F)cn1` [Example 108, (S)-4′-(5-Aminopyrazin-2-yl)-3′-fluoro-N-(2-oxopiperidin-3-yl)-[1,1′-biphenyl]-2-sulfonamide], in experiment [1] (setting [2]), the pIC50 is 7.31. The pKi on human FLAP (setting [3]) was 8.00.

Take `CCNS(=O)(=O)c1cc(C(F)(F)F)ccc1-c1ccc(-c2ncc(N)nc2C#N)c(F)c1` [Example 713, 4′-(5-Amino-3-cyanopyrazin-2-yl)-N-ethyl-3′-fluoro-4-(trifluoromethyl)-[1,1′-biphenyl]-2-sulfonamide]: in experiment [1] (setting [4]), the pIC50 was 7.27. Also, the pKi at human FLAP (wild type FLAP, HTRF format) is 8.77.

In the case of `Nc1cnc(-c2ccc(-c3ccccc3Oc3cc(C4CC4)ncn3)cc2F)cn1` [Example 636, 5-{2′-[(6-Cyclopropylpyrimidin-4-yl)oxy]-3-fluorobiphenyl-4-yl}pyrazin-2-amine], the pIC50 in experiment [1] (setting [4]) was 6.97. This compound also had a pKi at human FLAP (wild type FLAP, HTRF format) of 8.34.

With `Nc1cnc(-c2ccc(-c3ccc(C(F)(F)F)cc3C(=O)O)cc2F)cn1` [Example 603, 4′-(5-Aminopyrazin-2-yl)-3′-fluoro-4-(trifluoromethyl)biphenyl-2-carboxylic acid], the pIC50 in experiment [1] (setting [4]) is below 5.00. Further, at human FLAP (wild type FLAP, HTRF format), the pKi is 7.56.

With `Nc1ncc(-c2ccc(-c3cccnc3S(=O)(=O)C3CC3)cc2F)cn1` [Example 828, 5-{4-[2-(Cyclopropylsulfonyl)pyridin-3-yl]-2-fluorophenyl}pyrimidin-2-amine formic acid salt], in experiment [1] (setting [4]), the pIC50 was 6.59. Besides, the negative-log Ki (pKi) on human FLAP (setting [5]) was 6.94.

For `CC(C)C[C@H](NS(=O)(=O)c1ccccc1-c1ccc(-c2cnc(N)cn2)c(F)c1)C(N)=O` [Example 168, (S)-2-(4′-(5-Aminopyrazin-2-yl)-3′-fluoro-[1,1′-biphenyl]-2-ylsulfonamido)-4-methylpentanamide], the pIC50 in experiment [1] (setting [2]) is 6.87. The compound further had a pKi on human FLAP (setting [3]) of 7.85.

Consider `CC(C)(C)NS(=O)(=O)c1ccccc1-c1ccc(-c2coc(N)n2)c(F)c1` [Example 576, 4′-(2-Amino-1,3-oxazol-4-yl)-N-tert-butyl-3′-fluorobiphenyl-2-sulfonamide], for which the pIC50 in experiment [1] (setting [4]) is 6.94. Further, the pKi at human FLAP (wild type FLAP, HTRF format) was 8.10.

Regarding `Nc1ncc(-c2ccc(-c3ccccc3Oc3cc(C4CC4)ncn3)cc2F)cn1` [Example 637, 5-{2′-[(6-Cyclopropylpyrimidin-4-yl)oxy]-3-fluorobiphenyl-4-yl}pyrimidin-2-amine], in experiment [1] (setting [4]), the pIC50 was 6.40. For the same compound, the pKi on human FLAP (wild type FLAP, HTRF format) is 7.73.

`CC(=O)N1CCC(S(=O)(=O)c2ncccc2-c2ccc(-c3cnc(N)nc3)c(F)c2)CC1` [Example 815]: the pIC50 in experiment [1] (setting [4]) was 6.89. For the same compound, the pKi on human FLAP (wild type FLAP, HTRF format) was 6.59.

For `Nc1cnc(-c2ccc(-c3ccc(C(F)(F)F)cc3Oc3nccc(N)n3)cc2F)cn1` [Example 556, 2-{[4′-(5-Aminopyrazin-2-yl)-3′-fluoro-4-(trifluoromethyl)biphenyl-2-yl]oxy}pyrimidin-4-amine], in experiment [1] (setting [4]), the pIC50 was 7.89. The compound further had a pKi at human FLAP (wild type FLAP, HTRF format) of 9.00.

Turning to `Nc1cnc(-c2ccc(-c3ccccc3S(=O)(=O)NCC3CC3)cc2F)cn1` [Example 90, 4′-(5-Aminopyrazin-2-yl)-N-(cyclopropylmethyl)-3′-fluorobiphenyl-2-sulfonamide], the pIC50 in experiment [1] (setting [2]) is 7.92. The compound further showed a pKi at human FLAP (setting [3]) of 9.00.

For `CC(C)(C)NS(=O)(=O)c1ccccc1-c1ccc(-c2ccc(N)cn2)c(F)c1` [Example 427, 4′-(5-Aminopyridin-2-yl)-N-tert-butyl-3′-fluorobiphenyl-2-sulfonamide], in experiment [1] (setting [4]), the pIC50 was 5.80. The pKi at human FLAP (wild type FLAP, HTRF format) is 7.27.

Take `Nc1cnc(-c2ccc(-c3ccccc3S(=O)(=O)NC3CC3)cc2F)cn1` [Example 89, 4′-(5-Aminopyrazin-2-yl)-N-cyclopropyl-3′-fluorobiphenyl-2-sulfonamide]: the pIC50 in experiment [1] (setting [2]) is 7.37. This compound also gave a pKi at human FLAP (setting [3]) of 8.22.

As for `Nc1cnc(-c2ccc(-c3ccccc3S(=O)(=O)N[C@H]3c4ccccc4C[C@@H]3O)cc2F)cn1` [Example 158, 4′-(5-Aminopyrazin-2-yl)-3′-fluoro-N-((1S,2S)-2-hydroxy-2,3-dihydro-1H-inden-1-yl)-[1,1′-biphenyl]-2-sulfonamide], in experiment [1] (setting [2]), the pIC50 was 9.00. This compound also gave a pKi at human FLAP (setting [3]) of 9.00.

As to `COC[C@H](C)NS(=O)(=O)c1ccccc1-c1ccc(-c2cnc(N)cn2)c(F)c1` [Example 175, (S)-4′-(5-Aminopyrazin-2-yl)-3′-fluoro-N-(1-methoxypropan-2-yl)-[1,1′-biphenyl]-2-sulfonamide], the pIC50 in experiment [1] (setting [2]) is 7.77. Besides, the pKi at human FLAP (setting [3]) was 9.00.

On to `Nc1cnc(-c2ccc(-c3ccccc3S(=O)(=O)N3CCC[C@@H]3CO)cc2F)cn1` [Example 91, (R)-(1-((4′-(5-Aminopyrazin-2-yl)-3′-fluoro-[1,1′-biphenyl]-2-yl)sulfonyl)pyrrolidin-2-yl)methanol], for which the pIC50 in experiment [1] (setting [2]) was 7.55. At human FLAP (setting [3]), this compound had a pKi of 8.30.

For `Nc1cnc(-c2ccc(-c3ccccc3S(=O)(=O)N3CCC(O)(c4ccccc4)C3)cc2F)cn1` (racemic) [Example 180, racemic 1-{[4′-(5-Aminopyrazin-2-yl)-3′-fluorobiphenyl-2-yl]sulfonyl}-3-phenylpyrrolidin-3-ol], in experiment [1] (setting [2]), the pIC50 is 7.43. The pKi at human FLAP (setting [3]) is 8.70.

For the compound `Nc1cnc(-c2ccc(-c3ccccc3OCC(F)(F)F)cc2F)cn1` [Example 484, 5-[3-Fluoro-2′-(2,2,2-trifluoroethoxy)biphenyl-4-yl]pyrazin-2-amine], the pIC50 in experiment [1] (setting [4]) is 5.46. This compound gave a pKi at human FLAP (wild type FLAP, HTRF format) of 7.11.

For the compound `Nc1ncc(-c2ccc(-c3ccccc3S(=O)(=O)N3CC4(C3)CS(=O)(=O)C4)cc2F)cn1` [Example 313, 6-((4′-(2-Aminopyrimidin-5-yl)-3′-fluoro-[1,1′-biphenyl]-2-yl)sulfonyl)-2-thia-6-azaspiro[3.3]heptane 2,2-dioxide], the pIC50 in experiment [1] (setting [2]) is 6.24. Further, the pKi on human FLAP (setting [3]) was 6.40.

Turning to `NC[C@H]1CCCN1S(=O)(=O)c1ccccc1-c1ccc(-c2cnc(N)cn2)c(F)c1` (stereo in doubt) [Example 94, 5-(2′-{[2-(Aminomethyl)pyrrolidin-1-yl]sulfonyl}-3-fluorobiphenyl-4-yl)pyrazin-2-amine], the pIC50 in experiment [1] (setting [2]) is 6.63. The compound also had a pKi on human FLAP (setting [3]) of 7.12.

For `Nc1cnc(-c2ccc(-c3ccccc3S(=O)(=O)c3nccc(N)n3)cc2F)cn1` [Example 727, 2-{[4′-(5-Aminopyrazin-2-yl)-3′-fluorobiphenyl-2-yl]sulfonyl}pyrimidin-4-amine], the pIC50 in experiment [1] (setting [4]) is 5.93. At human FLAP (wild type FLAP, HTRF format), this compound had a pKi of 6.32.

Consider `Nc1cnc(-c2ccc(-c3cccnc3S(=O)(=O)C3CCCCC3)cc2F)cn1` [Example 808, 5-(4-(2-(Cyclohexylsulfonyl)pyridin-3-yl)-2-fluorophenyl)pyrazin-2-amine hydrochloride], for which the pIC50 in experiment [1] (setting [4]) is 8.20. Besides, the pKi on human FLAP (wild type FLAP, HTRF format) is 9.40.

Take `Nc1cnc(-c2ccc(-c3ccccc3Cl)cc2F)cn1` [Example 469, 5-(2′-Chloro-3-fluorobiphenyl-4-yl)pyrazin-2-amine]: in experiment [1] (setting [4]), the pIC50 was 5.63. Besides, the pKi on human FLAP (wild type FLAP, HTRF format) is 6.60.

For `Nc1cnc(-c2ccc(-c3cccnc3O[C@H]3CC[C@H](N)CC3)cc2F)cn1` [Example 652, 5-(4-{2-[(trans-4-Aminocyclohexyl)oxy]pyridin-3-yl}-2-fluorophenyl)pyrazin-2-amine formic acid salt], in experiment [1] (setting [4]), the pIC50 is 6.07. For the same compound, the pKi at human FLAP (wild type FLAP, HTRF format) is 7.20.

Take `C[C@@H]1CNCCN1S(=O)(=O)c1ccccc1-c1ccc(-c2cnc(N)nc2)c(F)c1` [Example 247, 5-(3-Fluoro-2′-{[(2R)-2-methylpiperazin-1-yl]sulfonyl}biphenyl-4-yl)pyrimidin-2-amine]: the pIC50 in experiment [1] (setting [2]) was 6.71. This compound gave a pKi at human FLAP (setting [3]) of 7.05.

Turning to `Nc1cnc(-c2ccc(-c3ccccc3S(=O)(=O)N3CCNCC3)cc2F)cn1` [Example 46, 5-[3-Fluoro-2′-(piperazin-1-ylsulfonyl)biphenyl-4-yl]pyrazin-2-amine], the pIC50 in experiment [1] (setting [2]) is 6.71. Besides, the pKi on human FLAP (setting [3]) was 7.24.

As to `C[Si](C)(C)CCOCS(=O)(=O)c1ccccc1-c1ccc(-c2cnc(N)cn2)c(F)c1` [Example 245, 5-[3-Fluoro-2′-({[2-(trimethylsilyl)ethoxy]methyl}sulfonyl)biphenyl-4-yl]pyrazin-2-amine hydrochloride], the pIC50 in experiment [1] was 6.63. In addition, at human FLAP (setting [5]), the pKi is 7.35.

These data come from patent US9079866B2, “Flap modulators” (JANSSEN PHARMACEUTICA NV, priority 2013, dated 2015).
